In ChEMBL document CHEMBL1142485, “Axial chirality and affinity at the GABA(A) receptor of pyrimido[1,2-a][1,4]benzodiazepines and related compounds” (Bioorg Med Chem, 2008):
Where “and” joins values, the source holds several entries; their conditions need not be identical. Identical values can stand only once.

Molecular target: not listed separately
Assay: Displacement of [3H]flunitrazepam from GABAA benzodiazepine receptor in rat brain membrane
Assay type: cell membranes

With `Cc1cc(=O)n2c(n1)CN=C(c1ccccc1)c1cc(Cl)ccc1-2` the IC50 was 93.6 nM and 394 nM.
For `Cc1cc(=O)nc2n1-c1ccc(Cl)cc1C(c1ccccc1Cl)=NC2`, the IC50 was 8.77 nM and 1.5 nM and 4.35 nM.

First: Clc1ccc2c(c1)C(c1ccccc1)=NCc1nncn1-2 [ESTAZOLAM]
Second: CN1C(=O)CN=C(c2ccccc2)c2cc(Cl)ccc21 [DIAZEPAM]
The IC50 of the first is 2.2-fold higher: 46.6 nM for the first, 21.2 nM for the second.

For `Cc1nnc2n1-c1ccc(Cl)cc1C(c1ccccc1Cl)=NC2` [TRIAZOLAM], the IC50 was 1.54 nM.

Organism: Rattus norvegicus
Assay: Displacement of [3H]flunitrazepam from GABAA benzodiazepine receptor in rat brain membrane at 10 uM
Assay type: cell membranes

Going from `Cc1cc(=O)n2c(n1)CN=C(c1ccccc1)c1cc(Cl)ccc1-2` to `Cc1cc(=O)n2c(n1)CC/N=C(/c1ccccc1)c1cc(Cl)ccc1-2`, the Activity falls from 17% to -18%.

Compound `Cc1cc(=O)nc2n1-c1ccc(Cl)cc1/C(c1ccccc1)=N\CC2` has an Activity of 24%.
